Experimental data: patent EP1849775A1, “Cycloalkane-substituted pyrazoline compounds, their preparation and use as medicaments” (LABORATORIOS DEL DR. ESTEVE, S.A., priority 2006, dated 2007)

How the values were obtained:
cannabinoid receptors = assay: Mouse tetrad model, antagonistic activity against Win 55212-2; assay type: in vivo; settings: Male NMRI mice; substance injected intravenously 5 minutes before intravenous 1.25 mg/kg Win-55,212; tetrad parameter not specified
From the text: II. In-vivo bioassay system for determination of cannabinoid activity
Substances with affinity for cannabinoid receptors are known to produce a wide range of pharmacological effects. It is also known that intravenous administration of a substance with affinity for cannabinoid receptors in mice produces analgesia , hypothermia, sedation and catalepsy. Individually, none of these effects can be considered as proof that a tested substance has affinity for cannabinoid-receptors, since all of these effects are common for various classes of centrally active agents. However, substances, which show all of these effects, i.e. substances that are active in this so-called tetrad model are considered to have affinity for the cannabinoid receptors. It has further been shown that cannabinoid receptor antagonists are higly effective in blocking the effects of a cannabinoid agonist in the mouse tetrad model.
The tetrad model is described, for example, in the publication of A. C. Howlett et al, International Union of Pharmacology XXVII. […]
Before testing in the behavioral procedures given below, mice are acclimatized to the experimental setting. Pre-Treatment control values are determined for analgesia hot plate latency (in seconds), rectal temperature, sedation and catalepsy.
In order to determine the agonistic activty of the substance to be tested, the mice are injected intravenously with the substance to be tested or the vehicle alone. 15 minutes after injection, latency in hot plate analgesia is measured. Rectal temperature, sedation and catalepsy are measured 20 minutes after injection.
In order to determine the antagonistic activity the identical procedure is used as for the determination of the agonistic effects, but with the difference that the substance to be evaluated for its antagonistic activity is injectected 5 minutes before the intravenous injection of 1.25 mg/kg Win-55,212 a known cannabinoid-receptor agonist. […]
The degree of analgesia is calculated from the formula: %MPE of Analgesia = (PT-B)/(PC-B) × 100 [formula] […]

CB1-Receptor = target: T1, CB1-Receptor (Homo sapiens, UniProt P21554); assay: In-vitro determination of affinity to CB1 receptor (radioligand binding); settings: Radiologand:[^3H]-CP55940, transfected human CB1 receptors
T1 construct: purchased Receptor Biology, Inc
Procedure: I. In-vitro determination of affinity to CB1/CB2-Receptors
The in-vitro determination of the affinity of the inventive quaternary ammonium salts of substituted pyrazoline compounds to CB1/CB2-Rezeptors is carried out as described in the publication of Ruth A. Ross, Heather C. Brockie et al., "Agonist-inverse agonist characterization at CB1 and CB2 cannabinoid receptors of L-759633, L759656 and AM630", British Journal of Pharmacology, 126, 665-672, (1999), whereby the transfected human CB1 and CB2 receptors of Receptor Biology, Inc. are used. The radioligand used for both receptors is [3H]-CP55940. The respective parts of the description are hereby incorporated by reference and forms part of the present disclosure.
The affinity of the inventive substituted pyrazoline compounds to CB1/CB2 receptors was determined as described above.

T1 sequence (P21554 whole entry): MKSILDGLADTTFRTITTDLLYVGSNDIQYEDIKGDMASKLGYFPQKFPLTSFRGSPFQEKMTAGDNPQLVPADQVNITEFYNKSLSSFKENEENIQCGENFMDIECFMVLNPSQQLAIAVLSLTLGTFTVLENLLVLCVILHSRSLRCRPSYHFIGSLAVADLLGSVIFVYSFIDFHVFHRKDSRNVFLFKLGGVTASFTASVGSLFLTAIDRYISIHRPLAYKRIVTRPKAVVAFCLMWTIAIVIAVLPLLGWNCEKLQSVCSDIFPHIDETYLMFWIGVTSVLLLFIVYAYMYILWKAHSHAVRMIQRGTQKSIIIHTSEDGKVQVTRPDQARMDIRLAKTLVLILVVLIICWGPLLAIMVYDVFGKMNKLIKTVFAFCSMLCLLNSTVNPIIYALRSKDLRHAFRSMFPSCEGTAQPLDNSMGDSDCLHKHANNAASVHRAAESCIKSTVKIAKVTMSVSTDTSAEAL

IC50 (CB1-Receptor) [µM] | Compound | Antagonistic Effect in (%) (cannabinoid receptors)
0.0158 | O=C(NC1CCCCCC1)C1=NN(c2ccc(Cl)cc2Cl)[C@@H](c2ccc(Cl)cc2)C1 [Example 2, (R)-5-(4-chlorophenyl)-N-cycloheptyl-1-(2,4-dichlorophenyl)-4,5-dihydro-1H-pyrazole-3-carboxamide] | 94
0.0562 | O=C(NC1CCCCCCC1)C1=NN(c2ccc(Cl)cc2Cl)C(c2ccc(Cl)cc2)C1 (stereo not drawn) [Example 5, 5-(4-chlorophenyl)-N-cyclooctyl-1-(2,4-dichlorophenyl)-4,5-dihydro-1H-pyrazole-3-carboxamide] | 62±5
0.1 | O=C(NC1CCCCCC1)C1=NN(c2ccc(Cl)cc2Cl)C(c2ccc(Cl)cc2)C1 (stereo not drawn) [Example 1, 5-(4-chlorophenyl)-N-cycloheptyl-1-(2,4-dichlorophenyl)-4,5-dihydro-1H-pyrazole-3-carboxamide] | 84
